Experimental data taken from patent US10611740B2, “Aryl dihydro-2H-benzo[b][1,4]oxazine sulfonamide and related compounds for use as agonists of RORγ and the treatment of disease” (Lycera Corporation, priority 2015, dated 2020).

Experiments:
[1] = target: T1, RORγ-LBD (Homo sapiens, UniProt P51449); assay: RORγ-Ligand Binding Domain (LBD) TR-FRET Assay; type: biochemical;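 for TR-FRET Assay Max Response: 665/615 nm ratio relative to signal without ursolic acid or compound set at 100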
T1 construct: made in house; host or cells: SF9 cells (baculovirus)
T1 sequence (P51449 269-508 limits assumed): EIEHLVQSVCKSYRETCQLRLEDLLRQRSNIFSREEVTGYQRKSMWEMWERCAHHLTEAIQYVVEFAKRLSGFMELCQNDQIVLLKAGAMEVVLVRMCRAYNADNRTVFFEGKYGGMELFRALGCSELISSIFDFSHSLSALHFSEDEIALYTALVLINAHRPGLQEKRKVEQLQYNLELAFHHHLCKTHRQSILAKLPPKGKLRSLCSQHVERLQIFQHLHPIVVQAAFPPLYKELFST
Outline: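 Compounds, diluted in DMSO and then in assay buffer (1% DMSO final), were combined with His-tagged RORγ-LBD lysate at roughly 3 nM final and a 200 nM biotinylated SRC1 LXXLL peptide. Ursolic acid was included at 2 μM final. Coactivator recruitment was detected by TR-FRET.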

[2] = target: T2, Gal4-RORγ-LBD (Homo sapiens, UniProt P51449); assay: Gal4-RORγ Luciferase Reporter Assay in HEK-293T Cells; type: cell-based; conditions: HEK-293 cells, luciferase reporter, with 2 μM ursolic acid
T2 construct: expressed in transfected cells; host or cells: HEK-293 cells (pcDNA3.1neo plasmid)
T2 sequence (P51449 269-508 limits assumed): T1 sequence (P51449 269-508 limits assumed)
Outline: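 HEK-293 cells were transiently co-transfected with Gal4-RORγ-LBD and pGL4.31 Gal4-luciferase, with ursolic acid added at 2 μM final. Compounds were incubated overnight at 37° C. in 0.2% DMSO and luminescence read with One-Glo. Max Response is the upper plateau of a 4-parameter logistic fit, with signal lacking ursolic acid or compound set to 100.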

Row | Structure (SMILES) | EC50 [1] [µM] | TR-FRET Assay Max Response [1] | EC50 [2] [µM] | Gal4-RORγ Assay Max Response [2]
1 | O=c1[nH]c(OCCC[C@H]2CN(S(=O)(=O)c3cccc(C(F)(F)F)c3)c3cc(-c4cccc(C(F)(F)F)n4)ccc3O2)no1 [Compound 36C, (S)-3-(3-(4-((3-(trifluoro-methyl)phenyl)sulfonyl)-6-(6-(trifluoromethyl)-pyridin-2-yl)-3,4-dihydro-2H-benzo[b][1,4]oxazin-2-yl)propoxy)-1,2,4-oxadiazol-5(4H)-one] | < 0.5 | **** (The symbol “****” indicates a value greater than 200) | < 0.5 | ** (The symbol “**” indicates a value in the range of greater than 90 to 150)
2 | O=C(O)[C@@H](O)CC[C@H]1CN(S(=O)(=O)c2cccc(C(F)(F)F)c2)c2cc(-c3cc(F)ccc3F)ccc2O1 [Compound 37, (S)-4-((S)-6-(2,5-difluorophenyl)-4-((3-(trifluoromethyl)phenyl)sulfonyl)-3,4-dihydro-2H-benzo[b][1,4]oxazin-2-yl)-2-hydroxybutanoic acid] | < 0.5 | *** (The symbol “***” indicates a value in the range of greater than 150 to 200) | 0.5 to 5 | *** (The symbol “***” indicates a value in the range of greater than 150 to 200)
3 | O=C(O)[C@H](O)CC[C@H]1CN(S(=O)(=O)c2cccc(C(F)(F)F)c2)c2cc(-c3cc(F)ccc3F)ccc2O1 [Compound 38, (R)-4-((S)-6-(2,5-difluorophenyl)-4-((3-(trifluoromethyl)phenyl)sulfonyl)-3,4-dihydro-2H-benzo[b][1,4]oxazin-2-yl)-2-hydroxybutanoic acid] | < 0.5 | *** (The symbol “***” indicates a value in the range of greater than 150 to 200) | < 0.5 | ** (The symbol “**” indicates a value in the range of greater than 90 to 150)
4 | C[C@](O)(CC[C@H]1CN(S(=O)(=O)c2cccc(C(F)(F)F)c2)c2cc(-c3cc(F)ccc3F)ccc2O1)C(=O)O [Compound 39, (S)-4-((S)-6-(2,5-difluorophenyl)-4-((3-(trifluoromethyl)phenyl)sulfonyl)-3,4-dihydro-2H-benzo[b][1,4]oxazin-2-yl)-2-hydroxy-2-methylbutanoic acid] | < 0.5 | **** (The symbol “****” indicates a value greater than 200) | < 0.5 | ** (The symbol “**” indicates a value in the range of greater than 90 to 150)
5 | C[C@@](O)(CC[C@H]1CN(S(=O)(=O)c2cccc(C(F)(F)F)c2)c2cc(-c3cc(F)ccc3F)ccc2O1)C(=O)O [Compound 40, (R)-4-((S)-6-(2,5-difluorophenyl)-4-((3-(trifluoromethyl)phenyl)sulfonyl)-3,4-dihydro-2H-benzo[b][1,4]oxazin-2-yl)-2-hydroxy-2-methylbutanoic acid] | < 0.5 | **** (The symbol “****” indicates a value greater than 200) | 0.5 to 5 | ** (The symbol “**” indicates a value in the range of greater than 90 to 150)
6 | O=S(=O)(c1cccc(C(F)(F)F)c1)N1C[C@H]([C@H](O)CO)Oc2ccc(-c3cc(F)ccc3F)cc21 [Compound 41, (R)-1-((R)-6-(2,5-difluorophenyl)-4-((3-(trifluoromethyl)phenyl)sulfonyl)-3,4-dihydro-2H-benzo[b][1,4]oxazin-2-yl)ethane-1,2-diol] | < 0.5 | **** (The symbol “****” indicates a value greater than 200) | < 0.5 | * (The symbol “*” indicates a value in the range of 25 to 90)
7 | CS(=O)(=O)NC(=O)CC[C@H]1CN(S(=O)(=O)c2cccc(C(F)(F)F)c2)c2cc(-c3cc(F)ccc3F)ccc2O1 [Compound 42, (S)-3-(6-(2,5-difluorophenyl)-4-((3-(trifluoromethyl)phenyl)sulfonyl)-3,4-dihydro-2H-benzo[b][1,4]oxazin-2-yl)-N-(methylsulfonyl)propanamide] | < 0.5 | **** (The symbol “****” indicates a value greater than 200) | < 0.5 | ** (The symbol “**” indicates a value in the range of greater than 90 to 150)
8 | O=C(CC[C@H]1CN(S(=O)(=O)c2cccc(C(F)(F)F)c2)c2cc(-c3ccc(F)cc3F)ccc2O1)NS(=O)(=O)c1ccccc1 [Compound 43A, (S)-3-(6-(2,4-difluorophenyl)-4-((3-(trifluoromethyl)phenyl)-sulfonyl)-3,4-dihydro-2H-benzo[b][1,4]oxazin-2-yl)-N-(phenylsulfonyl)propanamide] | < 0.5 | **** (The symbol “****” indicates a value greater than 200) | 0.5 to 5 | *** (The symbol “***” indicates a value in the range of greater than 150 to 200)
9 | O=C(CC[C@H]1CN(S(=O)(=O)c2cccc(C(F)(F)F)c2)c2cc(-c3ccc(F)cc3F)ccc2O1)NS(=O)(=O)C1CC1 [Compound 43B, (S)-N-(cyclopropylsulfonyl)-3-(6-(2,4-difluorophenyl)-4-((3-(trifluoromethyl)phenyl)-sulfonyl)-3,4-dihydro-2H-benzo[b][1,4]oxazin-2-yl)propanamide] | < 0.5 | **** (The symbol “****” indicates a value greater than 200) | 0.5 to 5 | ** (The symbol “**” indicates a value in the range of greater than 90 to 150)
10 | CNS(=O)(=O)NC[C@H]1CN(S(=O)(=O)c2cccc(C(F)(F)F)c2)c2cc(-c3cc(F)ccc3F)ccc2O1 [Compound 44, ([[(2S)-6-(2,5-difluorophenyl)-4-[[3-(trifluoromethyl)benzene]sulfonyl]-3,4-dihydro-2H-1,4-benzoxazin-2-yl]methyl]sulfamoyl)(methyl)amine] | < 0.5 | **** (The symbol “****” indicates a value greater than 200) | < 0.5 | ** (The symbol “**” indicates a value in the range of greater than 90 to 150)
11 | CN(C)S(=O)(=O)NC[C@H]1CN(S(=O)(=O)c2cccc(C(F)(F)F)c2)c2cc(-c3cc(F)ccc3F)ccc2O1 [Compound 45A, ([[(2S)-6-(2,5-difluorophenyl)-4-[[3-(trifluoromethyl)-benzene]-sulfonyl]-3,4-dihydro-2H-1,4-benzoxazin-2-yl]methyl]sulfamoyl)-(dimethyl)amine] | < 0.5 | **** (The symbol “****” indicates a value greater than 200) | < 0.5 | ** (The symbol “**” indicates a value in the range of greater than 90 to 150)
12 | COc1cc(S(=O)(=O)N2C[C@H](CNS(=O)(=O)N(C)C)Oc3ccc(-c4cc(F)ccc4F)cc32)ccc1F [Compound 45C, ([[(2S)-6-(2,5-difluorophenyl)-4-[[4-fluoro-3-methoxy-benzene]-sulfonyl]-3,4-dihydro-2H-1,4-benzoxazin-2-yl]methyl]sulfamoyl)-(dimethyl)amine] | < 0.5 | *** (The symbol “***” indicates a value in the range of greater than 150 to 200) | < 0.5 | * (The symbol “*” indicates a value in the range of 25 to 90)
